Reference: US6824998B2, “Compounds and methods for detecting tripeptidyl protease I” (University of Iowa Research Foundation, priority 2003, dated 2004)

Target: T1, TPP-1 (Mus musculus, UniProt O89023)
T1 construct: from tissue; host or cells: frozen 10 µm sections of paraformaldehyde-fixed tissues (e.g. kidney) from C57BL/6J mice (Jackson Laboratory)
T1 sequence (O89023 195-562): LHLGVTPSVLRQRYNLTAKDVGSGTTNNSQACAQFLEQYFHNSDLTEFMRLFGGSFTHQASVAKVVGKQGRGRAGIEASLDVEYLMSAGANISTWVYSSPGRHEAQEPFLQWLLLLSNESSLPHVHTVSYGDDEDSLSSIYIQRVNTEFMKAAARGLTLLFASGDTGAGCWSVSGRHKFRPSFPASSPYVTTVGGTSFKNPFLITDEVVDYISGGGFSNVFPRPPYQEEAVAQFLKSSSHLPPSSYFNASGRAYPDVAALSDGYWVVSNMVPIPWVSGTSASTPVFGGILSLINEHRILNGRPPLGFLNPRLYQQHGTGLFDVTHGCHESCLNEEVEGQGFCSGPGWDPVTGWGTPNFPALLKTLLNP
Assay: TPP-1 histochemical staining of frozen sections of murine tissues
Format: biochemical
Settings: for Effectiveness of p-NBA and p-AA versus benzaldehyde with regard to precipitate density and color: aldehyde comparison; for Hydrolysis by endogenous TPP-1 in murine tissues / Specificity of TPP-1 detection / background activity: frozen sections of murine tissues
Description: C57BL/6J mice (6 to 8 weeks old) were purchased from the Jackson Laboratory (Bar Harbor, Me.). The mice were sacrificed with an overdose of anesthetic and then transcardially perfused with 0.9% (w/v) saline solution, followed by 2% paraformaldehyde in 0.2 M phosphate buffer. The tissues were removed and post-fixed for 2 hours. After fixation, the tissues were cryoprotected by immersion in 25% sucrose and frozen in OCT compound (Sakura Finetek U.S.A., Inc, Torrance, Calif.). Sections (10 μm) were cut with a cryostat and mounted onto gelatin-coated slides.
Sections were embedded in 0.5% celloidin, followed by incubation in substrate solutions. The sections were incubated in substrate solutions containing 1 mM of the compound, 1 mg/mL of benzaldehyde (BA) or p-anisaldehyde (p-AA) or p-nitrobenzaldehyde (p-NBA) in 0.1 M acetate buffer (pH 4.5) at 37° C. for 4 hours. Slides were rinsed and cover-slipped before viewing on a Leica DM RBE microscope equipped with a Spot-RT Digital Camera and associated software. For all experiments, tissue staining was repeated on a minimum of 5 sections/animal per compound. A minimum of three individual animals was tested to confirm consistency of the results.
Five different compounds, compounds 10, 16, 20, 27, and 31, were tested histochemically on frozen sections of murine tissues. The substrates were systematically compared for sensitivity to TPP-1 activity using conditions to control the rate of crystalline formation and diffusion of product.

SMILES | Autofluorescence of the final reaction product of TPP-1 histochemical staining (Benzaldehyde) | Color of the final reaction product of TPP-1 histochemical staining (Benzaldehyde) | Effectiveness of p-NBA and p-AA versus benzaldehyde with regard to precipitate density and color | Hydrolysis by endogenous TPP-1 in murine tissues | Specificity of TPP-1 detection / background activity | Autofluorescence of the final reaction product of TPP-1 histochemical staining (p-Anisaldehyde) | Color of the final reaction product of TPP-1 histochemical staining (p-Anisaldehyde) | Autofluorescence of the final reaction product of TPP-1 histochemical staining (p-Nitrobenzaldehyde) | Color of the final reaction product of TPP-1 histochemical staining (p-Nitrobenzaldehyde) | Sensitivity for detecting TPP-1 activity (combination with p-AA, purple precipitates in areas of high endogenous enzyme activity (e.g., kidney)) | Effectiveness as histochemical reagent for detecting TPP-1 (particularly when combined with p-anisaldehyde)
C[C@H](NC(=O)[C@@H]1CCCN1C(=O)CN)C(=O)n1nc2c3c(c(Cl)ccc31)C(=O)c1ccccc1-2 [Compound 10, Gly-L-Pro-L-Ala-5-chloro-1-anthra[1,9-cd]pyrozol-6(2H)-one] | Autofluorescent | Yellow-green | more effective than benzaldehyde itself | readily hydrolyzed | low to no background activity | Autofluorescent | Yellow-green | Autofluorescent | Yellow-green | – | –
C[C@H](NC(=O)[C@@H]1CCCN1C(=O)CN)C(=O)NNc1cccc2c1C(=O)c1ccccc1C2=O [Compound 16, Gly-L-Pro-L-Ala-1-anthraquinonylhydrazide] | – | – | – | no evidence of hydrolysis | – | – | – | – | – | – | –
NCC(=O)N1CCC[C@H]1C(=O)N[C@@H](CO)C(=O)NNc1cccc2c1C(=O)c1ccccc1C2=O [Compound 20, Gly-L-Pro-L-Ser-1-anthraquinonylhydrazide] | – | Brown | more effective than benzaldehyde itself | readily hydrolyzed | low to no background activity | – | Dark Purple | – | Brown | most sensitive | most effective histochemical reagent
C[C@H](N)C(=O)N[C@@H](C)C(=O)N[C@@H](Cc1ccccc1)C(=O)NNc1cccc2c1C(=O)c1ccccc1C2=O [Compound 27, L-Ala-L-Ala-L-Phe-1-anthraquinonylhydrazide] | – | Yellow-green | more effective than benzaldehyde itself | readily hydrolyzed | low to no background activity | – | Yellow-green | – | Yellow-green | – | –
C[C@H](N)C(=O)N[C@@H](C)C(=O)N[C@H](Cc1ccccc1)C(=O)NNc1cccc2c1C(=O)c1ccccc1C2=O [Compound 31, L-Ala-L-Ala-D-Phe-1-anthraquinonylhydrazide] | – | – | – | no evidence of hydrolysis | – | – | – | – | – | – | –
